Experimental data taken from patent US20230009608A1, “GRK2 INHIBITORS AND USES THEREOF” (Cygnal Therapeutics, Inc., priority 2020, published 2023).
Read-outs that look alike come from different tables or passages of the source.

Key:
GRK2 = molecular target: T1, GRK2 (Homo sapiens, UniProt P25098); test: ADPGlo GRK2 Inhibition Assay (Example 8); type: biochemical; settings: read-out: A: Enzymatic GRK2: IC50 (nM) (Example 8)
T1 construct: purchased SignalChem A14-10G
T1 sequence (P25098 1-689): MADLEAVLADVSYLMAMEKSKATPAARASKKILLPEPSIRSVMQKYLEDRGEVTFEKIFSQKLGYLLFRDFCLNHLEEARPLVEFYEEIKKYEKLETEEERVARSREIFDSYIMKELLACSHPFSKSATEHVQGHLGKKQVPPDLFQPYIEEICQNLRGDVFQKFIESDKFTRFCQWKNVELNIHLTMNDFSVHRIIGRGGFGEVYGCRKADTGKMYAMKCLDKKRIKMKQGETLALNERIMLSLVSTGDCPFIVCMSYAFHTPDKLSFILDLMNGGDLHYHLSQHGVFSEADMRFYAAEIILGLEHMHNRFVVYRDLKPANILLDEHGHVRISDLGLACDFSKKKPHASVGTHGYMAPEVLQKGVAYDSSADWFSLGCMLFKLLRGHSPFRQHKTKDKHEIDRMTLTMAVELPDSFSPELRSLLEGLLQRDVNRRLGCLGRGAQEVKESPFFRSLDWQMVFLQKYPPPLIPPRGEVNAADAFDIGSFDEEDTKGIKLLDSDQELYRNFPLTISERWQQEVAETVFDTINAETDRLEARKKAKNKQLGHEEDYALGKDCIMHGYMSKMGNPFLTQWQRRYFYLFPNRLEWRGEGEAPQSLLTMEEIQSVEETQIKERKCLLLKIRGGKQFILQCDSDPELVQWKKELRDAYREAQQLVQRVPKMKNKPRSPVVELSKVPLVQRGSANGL
Procedure, shortened: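 GRK2 (15 nM 2× enzyme solution) was preincubated 15 min with compound, then reacted 180 min at room temperature with 2× mix of 20 μM ATP plus GRKtide in HEPES pH 7.5, MgCl2, Tween-20, DTT. ADP was detected by ADP-Glo luminescence. Percent inhibition was normalised to enzyme and no-enzyme controls, with dose-response curves from threefold dilutions starting at 100 μM.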

[1] = system: PAXF1657 control empty vector cell line; test: 7-day proliferation assay, PAXF1657 control empty vector cell line (Example 9); type: cell-based; settings: 168 h; Cell Line: PAXF1657 empty vector (EV) cell line; 7-day; read-out: C: 7-day proliferation assay: IC50 GeoMean
Procedure, shortened: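 Isogenic PAXF1657 pairs differing in GRK2 level (stable cDNA overexpression or CRISPR knockout, each with matched control) are seeded and allowed to attach overnight. Inhibitors span 30 μM-0.0002 μM in 0.3% DMSO for 3 plus 4 days at 37° C, 5% CO2, with a medium change between.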

[2] = Enzyme Assay A, ADPGlo (Example 8)

SMILES	IC50 (GRK2; [2]) [nM]	IC50 [1] [nM]	IC50 (GRK2; ADPGlo GRK2 enzyme assay) [nM]
Cn1c(CNc2cccc(C(=O)NC3(c4ccncn4)CC3)c2)nnc1-c1ccncn1	100	726	
O=C(N[C@@H]1COCc2ccccc21)c1cccc(NCc2nnc(-c3ccncn3)n2CCO)c1	1.47	592	
CCn1ncc(Cl)c1CNC(=O)c1cccc(NCc2nnc(-c3ccncn3)n2C)c1	16	> 10000	
COc1nccc(C)c1CNC(=O)c1cccc(NCc2nnc(-c3ccncn3)n2C)c1		930	37.3
C[C@H](NC(=O)c1cccc(NCc2nnc(-c3ccncn3)n2C)c1)C1NCCS1 (some centres unmarked)	150	172	
O=C(NCc1nncn1C1CC1)c1cccc(NCc2nnc(-c3ccncc3)[nH]2)c1	45	> 10000	
Cn1c(CNc2cccc(C(=O)NCc3cccc(C(F)F)c3)c2)nnc1-c1ccncn1	22	> 10000	
Cc1ocnc1CNC(=O)c1cccc(NCc2nnc(-c3ccncc3)[nH]2)c1	8.3	> 7500	
Cc1nn(C)cc1CNC(=O)c1cccc(NCc2nnc(-c3ccncn3)n2C)c1	19	6220	
Cn1c(CNc2cccc(C(=O)NCc3ccccc3OCCO)c2)nnc1-c1ccncn1		> 6450	48.9
COCC(NC(=O)c1cccc(NCc2nnc(-c3ccncn3)n2C)c1)c1ccccc1 (centres unmarked)	36	> 10000	
Cn1c(CNc2cccc(C(=O)NC3CCS(=O)(=O)c4ccccc43)c2)nnc1-c1ccncn1 (centres unmarked)		2790	18.2
C[C@H](NC(=O)c1cccc(NCc2nnc(-c3ccncn3)n2C)c1)c1cccnc1 [drawing 345]	420	> 8570	
COc1cccc(F)c1C(C)NC(=O)c1cccc(NCc2nnc(-c3ccncn3)n2C)c1 (centres unmarked)	27	> 10000	
COc1ccccc1C(CO)NC(=O)c1cccc(NCc2nnc(-c3ccncn3)n2C)c1 (centres unmarked)		> 13000	45.4
C#Cc1ccccc1CNC(=O)c1cccc(NCc2nnc(-c3ccncn3)n2C)c1		2320	46.4

SMILES	IC50 (GRK2; [2]) [nM]	IC50 [1] [nM]	IC50 (GRK2; ADPGlo GRK2 enzyme assay) [nM]
Cn1c(CNc2cccc(C(=O)NCc3ccnnc3)c2)nnc1-c1ccncn1	43	> 30000	
CC1CC(NC(=O)c2cccc(NCc3nnc(-c4ccncc4)[nH]3)c2)c2ncnn21 (centres unmarked)	37	> 10000	
COc1cccc([C@@H](C)NC(=O)c2ccnc(NCc3nnc(-c4ccncn4)n3C)c2)c1		468	9.89
CC(NC(=O)c1cccc(NCc2nnc(-c3ccncn3)n2C)c1)c1cnn(C)c1 (centres unmarked)	17	190	
Cn1c(CNc2cccc(C(=O)NC3COc4cccc(F)c43)c2)nnc1-c1ccncn1 (centres unmarked)	12	> 10000	
Cc1ncccc1CNC(=O)c1cccc(NCc2nnc(-c3ccncn3)n2C)c1	16	1490	
COc1ccncc1CNC(=O)c1cccc(NCc2nnc(-c3ccncn3)n2C)c1		5090	28.1
CCn1nc(C)c(CNC(=O)c2cccc(NCc3nnc(-c4ccncc4)[nH]3)c2)n1	18	3110	
Cn1c(CNc2cccc(C(=O)N[C@H]3CCOc4c(Cl)cccc43)c2)nnc1-c1ccncc1	32.1	> 30000	
O=C(NCc1cncnc1)c1cccc(NCc2nnc(-c3ccncc3)[nH]2)c1	34	> 10000	
Cn1c(CNc2cccc(C(=O)N[C@H](C#N)c3cc(F)ccc3F)c2)nnc1-c1ccncn1		808	17.7
Cn1c(CNc2cccc(C(=O)NCc3cscn3)c2)nnc1-c1ccncn1	13	> 30000	
CCCCCOc1ccc2c(c1)[C@@H](NC(=O)c1cccc(NCc3nnc(-c4ccncn4)n3C)c1)CCO2		2130	12.6
Cc1ccncc1C(C)NC(=O)c1cccc(NCc2nnc(-c3ccncn3)n2C)c1 (centres unmarked)	50	537	
Cn1c(CNc2cccc(C(=O)NCc3cccc4c3OCCO4)c2)nnc1-c1ccncn1	15	2070	
